{
  "source": "paper PMC10154249",
  "about": "“Unique progerin C-terminal peptide ameliorates Hutchinson–Gilford progeria syndrome phenotype by rescuing BUBR1” (Nature Aging, 2023)",
  "key": {"PTBP1": {"target": "T1, PTBP1 (Homo sapiens, UniProt P26599)", "T1 construct": "made in house", "T1 sequence (P26599 whole entry)": "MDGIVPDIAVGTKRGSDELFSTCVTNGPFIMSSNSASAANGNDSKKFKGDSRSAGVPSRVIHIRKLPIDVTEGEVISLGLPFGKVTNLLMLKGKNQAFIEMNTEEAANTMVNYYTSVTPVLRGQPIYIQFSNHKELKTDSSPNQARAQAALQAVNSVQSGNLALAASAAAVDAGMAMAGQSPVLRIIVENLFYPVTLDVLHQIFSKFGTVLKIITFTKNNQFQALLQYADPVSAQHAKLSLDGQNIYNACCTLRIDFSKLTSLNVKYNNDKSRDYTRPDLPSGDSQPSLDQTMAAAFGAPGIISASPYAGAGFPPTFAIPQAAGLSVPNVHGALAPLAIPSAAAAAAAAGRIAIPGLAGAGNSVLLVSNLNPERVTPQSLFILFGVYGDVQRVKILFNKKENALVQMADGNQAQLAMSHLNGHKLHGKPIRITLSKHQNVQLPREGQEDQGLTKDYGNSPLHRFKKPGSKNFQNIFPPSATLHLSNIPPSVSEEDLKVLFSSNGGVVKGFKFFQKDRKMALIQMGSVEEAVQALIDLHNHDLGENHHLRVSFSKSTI", "test": "Microscale thermophoresis (MST) of UPCP and PTBP1", "type": "binding", "settings": "Fig. 4l", "method": "Cells were harvested and lysed in buffer A mixed with protease inhibitor cocktail tablet (Roche) after 48 h. […] The beads were washed three times using 1× Tris saline buffer (50 mM Tris-HCl (pH 7.4) and 150 mM NaCl)) for 8 min each. The bound proteins BUBR1 or PTBP1 were eluted with 3×Flag peptide (ApexBio) for 2 h at 4 °C. Finally, BUBR1 or PTBP1 was concentrated and recovered by using the Centrifugal Filters (Amicon Ultra).\nHis-UPCP was eluted with Imidazole eluent for 2 h at 4 °C and concentrated and recovered by using centrifugal filters (Amicon Ultra). Flag-BUBR1 or PTBP1 was purified as described in Affinity purification of Flag-tagged protein. The purified protein was diluted with 0.05% Tween-20 in PBS in to an appropriate concentration (His-UPCP: 50 nM, Flag-BUBR1: 25 μM, Flag-PTBP1: 45 μM). Then, His-UPCP was labeled with RED-Tris-NAT according to the manufacturer’s instructions (NanoTemper, MO-L018). Flag-BUBR1 or Flag-PTBP1 was diluted by 16 concentration gradients in turn and mixed with labeled protein (His-UPCP). The capillaries (MST NT115 premium) were loaded and the samples measured on the instrument (NanoTemper Monolith NT.115). Data were analyzed by MO.AffinityAnalysis and curves were drawn using Origin 2019."}, "IMR90-progerin cells": {"tested_on": "IMR90-progerin cells", "test": "53BP1 foci in IMR90-progerin cells", "type": "cell-based, human", "settings": "IMR90-Flag-progerin+UPCP", "method": "(§1) Immunofluorescence was performed as described previously. Cells were plated on cover slips in 12-well plates, left overnight before the treatment. Cells were fixed in 1% formaldehyde in culture medium for 10 min at 37 °C and permeabilized with 0.2% Triton X-100 in PBS for 10 min at room temperature. Cells were washed twice in PBS and blocked for 1 h with 5% BSA in PBS and then incubated with primary antibodies at 4 °C overnight, washed three times in PBS and incubated with secondary antibodies for 1 h at room temperature. Cell nuclei were counterstained with a 500 nM concentration of 4,6-diamidino-2-phenylindole (DAPI) (Sigma). Images were acquired by a fluorescence microscope (OLYMPUS FV-1000, Carl Zeiss LSM880 or Leica DMi8) and analyzed with software NIS-Elements AR v.5.0.1 (Nikon), FLUOVIEW v.4.2b (OLYMPUS), ZEN v.2.3 SP1 (Carl Zeiss) and Leica Application Suite X v.3.6.0.24 (Leica). Cells were quantified by investigators who were blinded to the identity of the analyzed cell."}, "HGADFN003 cells": {"tested_on": "HGADFN003 cells", "test": "Effect of UPCP on HGADFN003 senescence after BUBR1 depletion (shBUBR1#3): SA-β-gal, Ki67, aneuploid cells", "type": "cell-based, human", "settings": "for Relative percentage of SA-β-gal positive cells: Fig. 5g; for Relative percentage of SA-β-gal positive cells / Relative percentage of Ki67 positive cells / Relative percentage of aneuploid cells: HGADFN003; for Relative percentage of Ki67 positive cells: Fig. 5i; for Relative percentage of aneuploid cells: Fig. 5j", "method": "as §1\nSA-β-gal staining was performed as previously described. Cells were fixed in 0.5% glutaraldehyde for 15 min at room temperature, washed three times with PBS (pH 6.0) containing 1 mM MgCl2 and exposed overnight 37 °C to containing 1 mg ml^–1 5-bromo-4-chloro-3-indolyl-β-D-galactopyranoside (MCE, catalog no. HY-15934), 0.12 mM potassium ferrocyanide (Sigma, catalog no. P3289), 0.12 mM potassium ferricyanide (Sigma, catalog no. P8131) and 1 mM MgCl2 PBS buffer (pH 6.0). Cells were washed three times with H2O and observed under a microscope (OLYMPUS CKX53). SA-β-gal positive cells were quantified by investigators who were blinded to the identity of the analyzed cell.\nFor the metaphase chromosome spread assay, 1.5 × 10^6 cells were seeded in a 6 cm dish and incubated for 24 h with fresh medium. Then, colchicine was added to a final concentration of 0.2 μg ml^–1 and the cells were incubated at 37 °C for 2 h. After digestion, we collected and rinsed the cells with PBS. The cells were centrifuged at 160g for 10 min. Then, 1 M KCl was added to a final concentration of 0.075 mol l^–1 and the samples were incubated at 37 °C for 20 min. The cells were centrifuged, and the supernatant aspirated. The pellet was resuspended, and 1 ml methanol:glacial acetic acid (3:1) solution was added. The sample was rested at room temperature for 10 min. Then, the cells were centrifuged at 160g for 10 min. The supernatant was aspirated, and the pellet resuspended in 1 ml fixative for 30 min. The cells were centrifuged and the pellet was suspended in 1 ml fixative again for 30 min. The cells were centrifuged at 160g for 10 min and the supernatant aspirated. The pellet was then resuspended in a small volume of fixative (typically less than 500 μl) until the cell suspension appeared lightly milky. A small quantity of the cell suspension was held vertically in a pipette with the end about 10 cm above the slide. A single drop was released from this height onto the slide and allowed to air dry. The cells were then incubated with 500 nM of DAPI (Invitrogen) for 10 min. Slides were examined with an Olympus BX53 fluorescence microscope and the images were captured by using the Olympus IPP v.7.0 software. Aneuploid cells were quantified by investigators who were blinded to the identity of the analyzed cell."}},
  "data": [
    {"substance": "H-YGRKKRRQRRRYNLRSRTVLCGTCGQPADKASASGSGAQSPQNCSIM-OH (cysteines drawn unpaired) [UPCP, unique progerin C-terminal peptide]", "values": [
      {"measurement": "Dose Response Curve, Response", "setting": "PTBP1; Dose 5.625e-6, Err-Value 0.11619", "result": 926.063},
      {"measurement": "Dose Response Curve, Response", "setting": "PTBP1; Dose 1.125e-5, Err-Value 0.242742", "result": 928.882},
      {"measurement": "Dose Response Curve, Response", "setting": "PTBP1; Dose 2.25e-5, Err-Value 0.492149", "result": 930.614},
      {"measurement": "Dose Response Curve, Response", "setting": "PTBP1; Dose 1.10E-08, Err-Value 0.170403", "result": 918.746},
      {"measurement": "Dose Response Curve, Response", "setting": "PTBP1; Dose 1.37E-09, Err-Value 0.46814", "result": 919.158},
      {"measurement": "Dose Response Curve, Response", "setting": "PTBP1; Dose 1.41E-06, Err-Value 0.643872", "result": 921.756},
      {"measurement": "Dose Response Curve, Response", "setting": "PTBP1; Dose 1.76E-07, Err-Value 0.140462", "result": 919.37},
      {"measurement": "Dose Response Curve, Response", "setting": "PTBP1; Dose 2.20E-08, Err-Value 0.425445", "result": 918.898},
      {"measurement": "Dose Response Curve, Response", "setting": "PTBP1; Dose 2.75E-09, Err-Value 0.242938", "result": 919.038},
      {"measurement": "Dose Response Curve, Response", "setting": "PTBP1; Dose 2.81E-06, Err-Value 0.290637", "result": 923.469},
      {"measurement": "Dose Response Curve, Response", "setting": "PTBP1; Dose 3.52E-07, Err-Value 0.0904303", "result": 919.901},
      {"measurement": "Dose Response Curve, Response", "setting": "PTBP1; Dose 4.39E-08, Err-Value 0.556308", "result": 918.749},
      {"measurement": "Dose Response Curve, Response", "setting": "PTBP1; Dose 5.49E-09, Err-Value 0.120596", "result": 918.787},
      {"measurement": "Dose Response Curve, Response", "setting": "PTBP1; Dose 6.87E-10, Err-Value 0.420573", "result": 919.333},
      {"measurement": "Dose Response Curve, Response", "setting": "PTBP1; Dose 7.03E-07, Err-Value 0.21429", "result": 920.338},
      {"measurement": "Dose Response Curve, Response", "setting": "PTBP1; Dose 8.79E-08, Err-Value 0.322491", "result": 918.54},
      {"measurement": "53BP1 foci per cell, n>10", "setting": "IMR90-progerin cells; replicate 1", "result": 54, "unit": "%"},
      {"measurement": "53BP1 foci per cell, n≤10", "setting": "IMR90-progerin cells; replicate 1", "result": 46, "unit": "%"},
      {"measurement": "53BP1 foci per cell, n>10", "setting": "IMR90-progerin cells; replicate 2", "result": 43, "unit": "%"},
      {"measurement": "53BP1 foci per cell, n≤10", "setting": "IMR90-progerin cells; replicate 2", "result": 57, "unit": "%"},
      {"measurement": "53BP1 foci per cell, n>10", "setting": "IMR90-progerin cells; replicate 3", "result": 59, "unit": "%"},
      {"measurement": "53BP1 foci per cell, n≤10", "setting": "IMR90-progerin cells; replicate 3", "result": 41, "unit": "%"},
      {"measurement": "Relative percentage of SA-β-gal positive cells", "setting": "HGADFN003 cells; UPCP+shBUBR1#3, P=0.0068 vs Mock, 0.0058 vs UPCP, replicate 1", "result": 38, "unit": "%"},
      {"measurement": "Relative percentage of SA-β-gal positive cells", "setting": "HGADFN003 cells; UPCP+shBUBR1#3, P=0.0068 vs Mock, 0.0058 vs UPCP, replicate 2", "result": 35, "unit": "%"},
      {"measurement": "Relative percentage of SA-β-gal positive cells", "setting": "HGADFN003 cells; UPCP+shBUBR1#3, P=0.0068 vs Mock, 0.0058 vs UPCP, replicate 3", "result": 41, "unit": "%"},
      {"measurement": "Relative percentage of SA-β-gal positive cells", "setting": "HGADFN003 cells; UPCP, Mock 48, 52, 55, P=0.0005 vs Mock, replicate 1", "result": 25, "unit": "%"},
      {"measurement": "Relative percentage of SA-β-gal positive cells", "setting": "HGADFN003 cells; UPCP, Mock 48, 52, 55, P=0.0005 vs Mock, replicate 2", "result": 28, "unit": "%"},
      {"measurement": "Relative percentage of SA-β-gal positive cells", "setting": "HGADFN003 cells; UPCP, Mock 48, 52, 55, P=0.0005 vs Mock, replicate 3", "result": 29, "unit": "%"},
      {"measurement": "Relative percentage of Ki67 positive cells", "setting": "HGADFN003 cells; UPCP+shBUBR1#3, P=0.0314 vs Mock, 0.0222 vs UPCP, replicate 1", "result": 52, "unit": "%"},
      {"measurement": "Relative percentage of Ki67 positive cells", "setting": "HGADFN003 cells; UPCP+shBUBR1#3, P=0.0314 vs Mock, 0.0222 vs UPCP, replicate 2", "result": 49, "unit": "%"},
      {"measurement": "Relative percentage of Ki67 positive cells", "setting": "HGADFN003 cells; UPCP+shBUBR1#3, P=0.0314 vs Mock, 0.0222 vs UPCP, replicate 3", "result": 43, "unit": "%"},
      {"measurement": "Relative percentage of Ki67 positive cells", "setting": "HGADFN003 cells; UPCP, Mock 35, 41, 37, P=0.0029 vs Mock, replicate 1", "result": 65, "unit": "%"},
      {"measurement": "Relative percentage of Ki67 positive cells", "setting": "HGADFN003 cells; UPCP, Mock 35, 41, 37, P=0.0029 vs Mock, replicate 2", "result": 58, "unit": "%"},
      {"measurement": "Relative percentage of Ki67 positive cells", "setting": "HGADFN003 cells; UPCP, Mock 35, 41, 37, P=0.0029 vs Mock, replicate 3", "result": 71, "unit": "%"},
      {"measurement": "Relative percentage of aneuploid cells", "setting": "HGADFN003 cells; UPCP+shBUBR1#3, P=0.0641 vs Mock, 0.0036 vs UPCP, replicate 1", "result": 25, "unit": "%"},
      {"measurement": "Relative percentage of aneuploid cells", "setting": "HGADFN003 cells; UPCP+shBUBR1#3, P=0.0641 vs Mock, 0.0036 vs UPCP, replicate 2", "result": 27, "unit": "%"},
      {"measurement": "Relative percentage of aneuploid cells", "setting": "HGADFN003 cells; UPCP+shBUBR1#3, P=0.0641 vs Mock, 0.0036 vs UPCP, replicate 3", "result": 24, "unit": "%"},
      {"measurement": "Relative percentage of aneuploid cells", "setting": "HGADFN003 cells; UPCP, Mock 28, 36, 31, P=0.005 vs Mock, replicate 1", "result": 19, "unit": "%"},
      {"measurement": "Relative percentage of aneuploid cells", "setting": "HGADFN003 cells; UPCP, Mock 28, 36, 31, P=0.005 vs Mock, replicate 2", "result": 16, "unit": "%"},
      {"measurement": "Relative percentage of aneuploid cells", "setting": "HGADFN003 cells; UPCP, Mock 28, 36, 31, P=0.005 vs Mock, replicate 3", "result": 18, "unit": "%"},
      {"measurement": "senescence remission by UPCP after BUBR1 depletion", "setting": "HGADFN003 cells; HGADFN003, BUBR1 shRNA (shBUBR1#3)", "result": "depletion of BUBR1 significantly antagonized the senescence remission mediated by UPCP"}
    ]}
  ]
}
